Laboratory results taken from patent publication US20130203734A1, “ANTI-INFLAMMATORY AGENTS” (priority 2010, published 2013).

What was measured:
[1] = tested on: MCP-1 induced migration of THP-1 cells; details: cited from earlier work
[2] = tested on: endotoxin-stimulated TNF-alpha levels; assay: Murine sub-lethal endotoxemia model, serum TNF-α by ELISA; format: in vivo, mice
Procedure: FIG. 2 is a graph showing the results of a murine sub-lethal endotoxemia test.
The anti-inflammatory efficacy of an exemplar compound according to the present invention was tested using the murine sub-lethal endotoxemia model.
Briefly, the method is as follows. Female CD1 mice (28-30g, ˜7 weeks of age) were dosed with their respective treatment in sterile filtered 1% CMC by oral gavage in a dose volume of 10 ml/kg one hour prior to an endotoxin (LPS) challenge. The endotoxin challenge was injected by the intraperitoneal route containing 675,000 Endotoxin Units of LPS (E. coli strain 0111:B4 (Code L4130)) in endotoxin free PBS. Mice were left for two hours and then exsanguinated under terminal anaesthesia and blood was taken. Serum was prepared from this terminal bleed and aliquoted and stored at −20° C. Serum TNF-α levels were measured by ELISA per manufacturers instructions (R and D Systems).
Eight animals were treated in each group, and the data for the animal with the highest and lowest TNF-α level in each group were eliminated, and the mean and standard error reported for the remaining six animals.

[3] = tested on: MCP-1 induced migration of THP-1 cells; assay: Inhibition of MCP-1 induced leukocyte migration (transwell, THP-1 cells); format: cell-based; details: Homo sapiens, MCP-1 25 ng/ml, 2 hours 37° C., read-out: ED50 (concentration required to reduce MCP-1-induced migration by 50%)
Procedure: A. Inhibition of MCP-1 Induced Leukocyte Migration
In principle, this assay consists of two chambers separated by a porous membrane. The chemoattractant is placed in the lower compartment and the cells are placed in the upper compartment. After incubation for a period at 37° C. the cells move towards the chemoattractant, and the number of cells in the lower compartment is proportional to the chemoattractant activity (relative to a series of controls).
This assay can be used with a range of different leukocyte populations. For example, freshly prepared human peripheral blood leukocytes may used. Alternatively, leukocyte subsets may be prepared, including polymorphonuclear cells or lymphocytes or monocytes using methods well known to those skilled in the art such as density gradient centrifugation or magnetic bead separations. Alternatively, immortal cell lines which have been extensively validated as models of human peripheral blood leukocytes may be used, including, but not limited to THP-1 cells as a model of monocytes or Jurkat cells as model of naive T cells.
The transwell migration systems are manufactured by Neuroprobe, Gaithersburg, Md., USA.
The plates used are ChemoTx plates (Neuroprobe 101-8) and 30 μl clear plates (Neuroprobe MP30).
Geys' Balanced Salt Solution is purchased from Sigma (Sigma G-9779).
Fatty acid-free BSA is purchased from Sigma (Sigma A-8806). […]

[4] = tested on: chemokine-induced migration; details: cited from earlier work
[5] = 37° C.; cited from earlier work
[6] = cited from earlier work

Compound | melting point [°C] | also measured
CCCCCCCCCCC(C)(C)C(=O)NC1CCCCNC1=O (stereo not drawn) [2′2′-dimethyldodecenanoyl-3-aminocaprolactam] |  | potency as a BSCI relative to dodecanoyl-3-aminocaprolactam ([1]; MCP-1 induced THP-1 cell migration assay): 10 fold
CCCCCCCCCC(C)(C)CC(=O)NC1CCCCNC1=O (stereo not drawn) [3′3′-dimethyldodecanoyl-3-aminocaprolactam] |  | potency as a BSCI relative to the linear alkyl analogs [1]: no more potent
O=C1NCCCC[C@@H]1NC(=O)C12CC3CC(CC(C3)C1)C2 [(S)-3-(adamantane-1-carbonyl)aminocaprolactam] |  | anti-inflammatory effect in vivo compared with the compound of Example 4 ([2]; 1 mg/kg p.o.): similar
O=C1NCCC[C@@H]1NS(=O)(=O)c1ccc(C(F)(F)F)cc1 [Example 4, (S)—N-(2-Oxopiperidin-3-yl)-4-(trifluoromethyl)-benzenesulfonamide] |  | inhibition of endotoxin-stimulated TNF-alpha levels ([2]; female CD1 mice, single dose 10 mg/kg p.o. one hour prior to LPS, serum 2 hours after LPS): 60-70%
O=C1NCCC[C@@H]1NS(=O)(=O)c1ccccc1C(F)(F)F [Example 6, (S)—N-(2-oxopiperidin-3-yl)-2-(trifluoromethyl)benzenesulfonamide] | 161 to 163 | 
O=C1NCCC[C@@H]1NS(=O)(=O)c1ccc(F)cc1F [Example 7, (S)-2,4-difluoro-N-(2-oxopiperidin-3-yl)benzenesulfonamide] | 162 to 163 | 
O=C1NCCC[C@@H]1NS(=O)(=O)c1cc(F)ccc1F [Example 8, (S)-2,5-difluoro-N-(2-oxopiperidin-3-yl)benzenesulfonamide] | 183 to 185 | 
O=C1NCCC[C@@H]1NS(=O)(=O)c1c(F)cccc1F [Example 9, (S)-2,6-difluoro-N-(2-oxopiperidin-3-yl)benzenesulfonamide] | 152 to 153 | 
O=C1NCCC[C@@H]1NS(=O)(=O)c1cc(F)cc(F)c1 [Example 11, (S)-3,5-difluoro-N-(2-oxopiperidin-3-yl)benzenesulfonamide] | 170 to 174 | 
Cc1ccc(S(=O)(=O)NC2CCCNC2=O)cc1 (stereo not drawn) [Reference Example 1, 3-(4′-Methylbenzenesulfonylamino)tetrahydropyridin-2-one] |  | EC50 [3]: ≤ 100 nM
Cc1ccc(S(=O)(=O)NC2CCCCNC2=O)cc1 (stereo not drawn) [Reference Example 2, 3-(4′-Methylbenzenesulfonylamino)azepan-2-one] |  | EC50 [3]: ≤ 100 nM
CCCCCCCCCC=CC(=O)NC1CCCCNC1=O (stereo not drawn) [dodec-2′,3′-enoyl-3-aminocaprolactam] |  | potency as BSCI relative to compounds with corresponding saturated alkyl tail groups [4]: markedly lower potency
O=C1CCC(N2C(=O)c3ccccc3C2=O)C(=O)N1 (stereo not drawn) [thalidomide] |  | anti-inflammatory effect on TNF-α levels in vivo compared with the compound of Example 4 ([2]; thalidomide 10 mg/kg p.o., positive control, maximally effective dose): quantitatively similar
(S)-3-(undec-10-enoyl)-tetrahydropyridin-2-one |  | potency compared with the parental molecule (S)-3-(undec-10-enoyl)-aminoglutarimide [4]: considerably reduced potency; stability in human serum (completely stable for) [5]: at least 7 days
c(DCys-DGln-DIle-DTrp-DLys-DGIn-DLys-DPro-DAsp-DLeu-DCys)-NH2 [NR58-3.14.3] |  | half-life of clearance from blood plasma ([6]; after intravenous injection): less than 30 minutes; oral bioavailability ([6]; in vivo, po): not orally bioavailable

Further lines, with some results ahead:

melting point [°C] | Compound | also measured
153 to 156 | O=C1NCCC[C@@H]1NS(=O)(=O)c1ccc(F)cc1 [Example 1, (S)-4-Fluoro-N-(2-oxopiperidin-3-yl)benzenesulfonamide] | 
159 to 160 | O=C1NCCC[C@@H]1NS(=O)(=O)c1cccc(F)c1 [Example 2, (S)-3-Fluoro-N-(2-oxopiperidin-3-yl)benzenesulfonamide] | 
180 to 183 | O=C1NCCC[C@@H]1NS(=O)(=O)c1ccccc1F [Example 3, (S)-2-Fluoro-N-(2-oxopiperidin-3-yl)benzenesulfonamide] | 
158 to 160 | O=C1NCCC[C@@H]1NS(=O)(=O)c1cccc(C(F)(F)F)c1 [Example 5, (S)—N-(2-Oxopiperidin-3-yl)-3-(trifluoromethyl)benzenesulfonamide] | 
153 to 155 | O=C1NCCC[C@@H]1NS(=O)(=O)c1ccc(F)c(F)c1 [Example 10, (S)-3,4-difluoro-N-(2-oxopiperidin-3-yl)benzenesulfonamide] | 
155 to 156 | CC(C)(C)c1ccc(S(=O)(=O)N[C@H]2CCCNC2=O)cc1 [Example 16, (S)-3-(4′-tert-Butylbenzenesulfonylamino)-tetrahydropyridin-2-one] | 
98 to 99 | CCCCCCCCc1ccc(S(=O)(=O)N[C@H]2CCCNC2=O)cc1 [Example 19, (S)-3-(4′-Octylbenzenesulfonylamino)-tetrahydropyridin-2-one] | 
